# Molecular target: T1, CRF1 receptors (Homo sapiens, UniProt P34998)
# T1 construct: endogenous in cells; host or cells: IMR-32 cells, transformed with 2.5 µM 5'-bromo-2'-deoxyuridine for 10 days; membrane preparation
# T1 sequence (P34998 24-415): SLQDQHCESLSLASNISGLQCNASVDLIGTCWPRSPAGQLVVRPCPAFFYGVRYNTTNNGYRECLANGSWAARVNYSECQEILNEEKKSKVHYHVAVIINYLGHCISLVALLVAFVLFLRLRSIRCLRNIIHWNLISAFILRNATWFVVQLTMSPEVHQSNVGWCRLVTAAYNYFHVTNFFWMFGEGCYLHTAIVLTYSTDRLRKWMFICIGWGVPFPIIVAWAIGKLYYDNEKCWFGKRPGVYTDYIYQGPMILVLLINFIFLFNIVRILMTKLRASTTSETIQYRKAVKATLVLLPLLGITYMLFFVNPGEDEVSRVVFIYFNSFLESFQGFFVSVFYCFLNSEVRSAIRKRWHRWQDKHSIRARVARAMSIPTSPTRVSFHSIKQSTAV
# Experiment: CRF1 receptor radioligand binding assay ([125I]-oCRF competition, IMR-32 cell membranes)
# Details: IMR-32 cell membranes, [125I]-oCRF 100 pM; read-out: Ki (CRF-1R)
# Procedure: CRF1 receptor antagonists, by occupying the same receptors, blocks the accessibility of the receptors to CRF, a hypothalamic factor mediating body's responses to physiological and psychological stress. The following radioligand binding assay examines the ability of the antagonists to bind the CRF1 receptors by assessing their ability to compete with binding of CRF to the receptors in cell membrane.
# Tissue culture and membrane preparation. IMR-32 cells were grown at 37° C. in 5% CO2 as a monolayer in medium consisting of MEM supplemented with 10% heat-inactivated fetal bovine serum, 0.1 mM nonessential amino acids, 1 mM sodium pyruvate and 2 mM L-glutamine. […] After transformation, cells were rinsed twice with phosphate-buffered saline, and incubated for 10–15 min. at 4° C. in homogenization buffer consisting of 50 mM Tris (pH 7.2), 10 mM MgCl2 and 2 mM EGTA. Cells were transferred from plates to polypropylene tubes (16×100 mm), homogenized and centrifuged at 32,000×g for 15 min. Pellets were resuspended by homogenization in buffer and centrifuged at 32,000×g for 15 min. Pellets were resuspended in homogenization buffer then stored at −80° C. until needed.
# Radioligand binding assays. […] The assay buffer consisted of 50 mM Tris (pH 7.2), 10 mM MgCl2, 0.5% BSA, 0.005% Triton X-100, 10 μg/mL aprotinin and 10 μg/mL leupeptin. Assays were stopped by addition of ice-cold wash buffer (50 mM Tris, pH 7.4 and 0.2% BSA). Filtration over glass fiber filters (Whatman GF/B) previously soaked in 50 mM Tris, pH 7.2 and 1% BSA was carried out using a Brandel cell harvester. Filters were washed with 10 mL of ice-cold wash buffer. Non-specific binding was defined with 10 μM oCRF. IC50 values for oCRF and test compounds were calculated by nonlinear regression using a one-site binding curve (GraphPad Prism).
smiles,measurement,value
"Cc1cc(C)c(N2CCCn3c2nc(C)c3C(=O)N(CC2CC2)CC2CC2)c(C)c1 [Example 58, 2-Methyl-8-(2,4,6-trimethyl-phenyl)-5,6,7,8-tetrahydro-imidazo[1,2-a]pyrimidine-3-carboxylic acid bis-cyclopropylmethyl-amide]",Ki,< 10000 nM
"CCCN(Cc1c(C(F)(F)F)nc2n1CCCN2c1c(C)cc(C)cc1C)CC1CC1 [Example 59, Cyclopropylmethyl-propyl-[2-trifluoromethyl-8-(2,4,6-trimethyl-phenyl)-5,6,7,8-tetrahydro-imidazo[1,2-a]pyrimidin-3-ylmethyl]-amine]",Ki,< 100 nM
"Cc1cc(C)c(N2CCCn3c2nc(C(F)(F)F)c3CN2CC=CCC2)c(C)c1 [Example 60, 3-(3,6-Dihydro-2H-pyridin-1-ylmethyl)-2-trifluoromethyl-8-(2,4,6-trimethyl-phenyl)-5,6,7,8-tetrahydro-imidazo[1,2-a]pyrimidine]",Ki,< 1000 nM
"Cc1cc(C)c(N2CCCn3c2nc(C(F)(F)F)c3CN2CCSCC2)c(C)c1 [Example 61, 3-Thiomorpholin-4-ylmethyl-2-trifluoromethyl-8-(2,4,6-trimethyl-phenyl)-5,6,7,8-tetrahydro-imidazo[1,2-a]pyrimidine]",Ki,< 1000 nM
"Cc1cc(C)c(N2CCCn3c2nc(C(F)(F)F)c3CN2CCCCC2)c(C)c1 [Example 62, 3-Piperidin-1-ylmethyl-2-trifluoromethyl-8-(2,4,6-trimethyl-phenyl)-5,6,7,8-tetrahydro-imidazo[1,2-a]pyrimidine]",Ki,< 1000 nM
"Cc1cc(C)c(N2CCCn3c2nc(C(F)(F)F)c3CN2CCCCC2C)c(C)c1 (stereo not shown) [Example 63, 3-(2-Methyl-piperidin-1-ylmethyl)-2-trifluoromethyl-8-(2,4,6-trimethyl-phenyl)-5,6,7,8-tetrahydro-imidazo[1,2-a]pyrimidine]",Ki,< 1000 nM
"Cc1cc(C)c(N2CCCn3c2nc(C(F)(F)F)c3CN2CCC(C)CC2)c(C)c1 [Example 64, 3-(4-Methyl-piperidin-1-ylmethyl)-2-trifluoromethyl-8-(2,4,6-trimethyl-phenyl)-5,6,7,8-tetrahydro-imidazo[1,2-a]pyrimidine]",Ki,< 1000 nM
"Cc1cc(C)c(N2CCCn3c2nc(C(F)(F)F)c3CN(C)Cc2ccccc2)c(C)c1 [Example 65, Benzyl-methyl-[2-trifluoromethyl-8-(2,4,6-trimethyl-phenyl)-5,6,7,8-tetrahydro-imidazo[1,2-a]pyrimidin-3-ylmethyl]-amine]",Ki,< 1000 nM
"Cc1cc(C)c(N2CCCn3c2nc(C(F)(F)F)c3CN(C)CCc2ccccc2)c(C)c1 [Example 66, Methyl-phenethyl-[2-trifluoromethyl-8-(2,4,6-trimethyl-phenyl)-5,6,7,8-tetrahydro-imidazo[1,2-a]pyrimidin-3-ylmethyl]-amine]",Ki,< 1000 nM
"C=CCN(CC=C)Cc1c(C(F)(F)F)nc2n1CCCN2c1c(C)cc(C)cc1C [Example 67, Diallyl-[2-trifluoromethyl-8-(2,4,6-trimethyl-phenyl)-5,6,7,8-tetrahydro-imidazo[1,2-a]pyrimidin-3-ylmethyl]-amine]",Ki,< 100 nM
"CCCN(CCC)Cc1c(C(F)(F)F)nc2n1CCCN2c1c(C)cc(C)cc1C [Example 68, Dipropyl-[2-trifluoromethyl-8-(2,4,6-trimethyl-phenyl)-5,6,7,8-tetrahydro-imidazo[1,2-a]pyrimidin-3-ylmethyl]-amine]",Ki,< 1000 nM
"CCCCN(C)Cc1c(C(F)(F)F)nc2n1CCCN2c1c(C)cc(C)cc1C [Example 69, Butyl-methyl-[2-trifluoromethyl-8-(2,4,6-trimethyl-phenyl)-5,6,7,8-tetrahydro-imidazo[1,2-a]pyrimidin-3-ylmethyl]-amine]",Ki,< 1000 nM
"CCCCN(CC)Cc1c(C(F)(F)F)nc2n1CCCN2c1c(C)cc(C)cc1C [Example 70, Butyl-ethyl-[2-trifluoromethyl-8-(2,4,6-trimethyl-phenyl)-5,6,7,8-tetrahydro-imidazo[1,2-a]pyrimidin-3-ylmethyl]-amine]",Ki,< 1000 nM
"C=C(C)CN(CC)Cc1c(C(F)(F)F)nc2n1CCCN2c1c(C)cc(C)cc1C [Example 71, Ethyl-(2-methyl-allyl)-[2-trifluoromethyl-8-(2,4,6-trimethyl-phenyl)-5,6,7,8-tetrahydro-imidazo[1,2-a]pyrimidin-3-ylmethyl]-amine]",Ki,< 100 nM
"Cc1cc(C)c(N2CCCn3c2nc(C(F)(F)F)c3CN2CCC(c3ccccc3)C2)c(C)c1 (stereo not shown) [Example 72, 3-(3-Phenyl-pyrrolidin-1-ylmethyl)-2-trifluoromethyl-8-(2,4,6-trimethyl-phenyl)-5,6,7,8-tetrahydro-imidazo[1,2-a]pyrimidine]",Ki,< 1000 nM
"Cc1cc(C)c(N2CCCn3c2nc(C(F)(F)F)c3CN(CC2CC2)CC(F)(F)F)c(C)c1 [Example 73, Cyclopropylmethyl-(2,2,2-trifluoro-ethyl)-[2-trifluoromethyl-8-(2,4,6-trimethyl-phenyl)-5,6,7,8-tetrahydro-imidazo[1,2-a]pyrimidin-3-ylmethyl]-amine]",Ki,< 10 nM
"Cc1cc(C)c(N2CCCn3c2nc(C(F)(F)F)c3CN(CC2CC2)CC(F)(F)C(F)(F)F)c(C)c1 [Example 74, Cyclopropylmethyl-(2,2,3,3,3-pentafluoro-propyl)-[2trifluoromethyl-8-(2,4,6-trimethyl-phenyl)-5,6,7,8-tetrahydro-imidazo[1,2-a]pyrimidin-3-ylmethyl]-amine]",Ki,< 100 nM
"CCN(Cc1c(C(F)(F)F)nc2n1CCCN2c1c(C)cc(C)cc1C)CC1CC1 [Example 75, Cyclopropylmethyl-ethyl-[2-trifluoromethyl-8-(2,4,6-trimethyl-phenyl)-5,6,7,8-tetrahydro-imidazo[1,2-a]pyrimidin-3-ylmethyl]-amine]",Ki,< 100 nM
"Cc1cc(C)c(N2CCCn3c2nc(C(F)(F)F)c3CN(CC2CCC2)CC(F)(F)F)c(C)c1 [Example 76, Cyclobutylmethyl-(2,2,2-trifluoro-ethyl)-[2-trifluoromethyl-8-(2,4,6-trimethyl-phenyl)-5,6,7,8-tetrahydro-imidazo[1,2-a]pyrimidin-3-ylmethyl]-amine]",Ki,< 100 nM
"CCCN(Cc1c(C(F)(F)F)nc2n1CCCN2c1c(C)cc(C)cc1C)CC1CCC1 [Example 77, Cyclobutylmethyl-propyl-[2-trifluoromethyl-8-(2,4,6-trimethyl-phenyl)-5,6,7,8-tetrahydro-imidazo[1,2-a]pyrimidin-3-ylmethyl]-amine]",Ki,< 100 nM
"CCCN(CCC(F)(F)F)Cc1c(C(F)(F)F)nc2n1CCCN2c1c(C)cc(C)cc1C [Example 78, Propyl-[2-trifluoromethyl-8-(2,4,6-trimethyl-phenyl)-5,6,7,8-tetrahydro-imidazo[1,2-a]pyrimidin-3-ylmethyl]-(3,3,3-trifluoro-propyl)-amine]",Ki,< 1000 nM
"CCCN(Cc1c(C(F)(F)F)nc2n1CCCN2c1c(C)cc(C)cc1C)CC(F)(F)F [Example 79, Propyl-(2,2,2-trifluoro-ethyl)-[2-trifluoromethyl-8-(2,4,6-trimethyl-phenyl)-5,6,7,8-tetrahydro-imidazo[1,2-a]pyrimidin-3-ylmethyl]-amine]",Ki,< 100 nM
"CCCN(Cc1c(C(F)(F)F)nc2n1CCCN2c1c(C)cc(C)cc1C)CC(F)(F)C(F)(F)F [Example 80, (2,2,3,3,3-Pentafluoro-propyl)-propyl-[2-trifluoromethyl-8-(2,4,6-trimethyl-phenyl)-5,6,7,8-tetrahydro-imidazo[1,2-a]pyrimidin-3-ylmethyl]-amine]",Ki,< 1000 nM
"Cc1cc(C)c(N2CCCn3c2nc(C(F)(F)F)c3CN(CCc2ccccc2)CCC(F)(F)F)c(C)c1 [Example 81, Phenethyl-[2-trifluoromethyl-8-(2,4,6-trimethyl-phenyl)-5,6,7,8-tetrahydro-imidazo[1,2-a]pyrimidin-3-ylmethyl]-(3,3,3-trifluoro-propyl)-amine]",Ki,< 1000 nM
"Cc1cc(C)c(N2CCCn3c2nc(C(F)(F)F)c3CN(CCc2ccccc2)CC(F)(F)F)c(C)c1 [Example 82, Phenethyl-(2,2,2-trifluoro-ethyl)-[2-trifluoromethyl-8-(2,4,6-trimethyl-phenyl)-5,6,7,8-tetrahydro-imidazo[1,2-a]pyrimidin-3-ylmethyl]-amine]",Ki,< 100 nM

# From patent US7125990B2, “Imidazolyl derivatives as corticotropin releasing factor inhibitors” (Bristol-Myers Squibb COmpany, priority 2001, dated 2006)
